Results: patent US10106558B2, “Azolobenzazine compounds, compositions comprising these compounds and their use for controlling invertebrate pests” (BASF SE, priority 2015, dated 2018)

Columns and labels:
Assay type in all cases: in vivo
[1] = tested on: tobacco budworm (Heliothis virescens); test: Action on tobacco budworm, eggs on insect diet in 96-well microtiter plates; settings: 120 h, egg and larval mortality visually assessed after 5 days, read-out: mortality in comparison with untreated controls
Protocol: Example B6: Action on Tobacco Budworm (Heliothis virescens)
For evaluating control of tobacco budworm (Heliothis virescens) the test unit consisted of 96-well-microtiter plates containing an insect diet and 15-25 H. virescens eggs.
The compounds were formulated using a solution containing 75% v/v water and 25% v/v DMSO. Different concentrations of formulated compounds were sprayed onto the insect diet at 10 μl, using a custom built micro atomizer, at two replications.
After application, microtiter plates were incubated at about 28±1° C. and about 80±5% relative humidity for 5 days. Egg and larval mortality was then visually assessed.

[2] = tested on: Silverleaf Whitefly (Bemisia argentifolii) (Adults); test: Action on silverleaf whitefly adults, sprayed cotton plants; settings: 72 h, 3 days after treatment, read-out: mortality in comparison with untreated controls
Protocol: Example B4: Action on Silverleaf Whitefly (Bemisia argentifolii) (Adults)
The active compounds were formulated by a Tecan liquid handler in 100% cyclohexanone as a 10,000 ppm solution supplied in tubes. The 10,000 ppm solution was serially diluted in 100% cyclohexanone to make interim solutions. These served as stock solutions for which final dilutions were made by the Tecan in 50% acetone:50% water (v/v) into 5 or 10 ml glass vials. A nonionic surfactant (Kinetic®) was included in the solution at a volume of 0.01% (v/v). The vials were then inserted into an automated electrostatic sprayer equipped with an atomizing nozzle for application to plants/insects.
Cotton plants at the cotyledon stage (one plant per pot) were sprayed by an automated electrostatic plant sprayer equipped with an atomizing spray nozzle. The plants were dried in the sprayer fume hood and then removed from the sprayer. Each pot was placed into a plastic cup and about 10 to 12 whitefly adults (approximately 3-5 days old) were introduced. The insects were collected using an aspirator and a nontoxic Tygon® tubing connected to a barrier pipette tip. The tip, containing the collected insects, was then gently inserted into the soil containing the treated plant, allowing insects to crawl out of the tip to reach the foliage for feeding. Cups were covered with a reusable screened lid. Test plants were maintained in a growth room at about 25° C. and about 20-40% relative humidity for 3 days, avoiding direct exposure to fluorescent light (24 hour photoperiod) to prevent trapping of heat inside the cup. Mortality was assessed 3 days after treatment, compared to untreated control plants.

[3] = tested on: Mediterranean fruitfly (Ceratitis capitata); test: Action on Mediterranean fruitfly, eggs on insect diet in microtiter plates; settings: 120 h, egg and larval mortality visually assessed after 5 days, read-out: mortality in comparison with untreated controls
Protocol: Example B5: Action on Mediterranean Fruitfly (Ceratitis capitata)
For evaluating control of Mediterranean fruitfly (Ceratitis capitata) the test unit consisted of microtiter plates containing an insect diet and 50-80 C. capitata eggs.
(§1) The compounds were formulated using a solution containing 75% v/v water and 25% v/v DMSO. Different concentrations of formulated compounds were sprayed onto the insect diet at 5 μl, using a custom built micro atomizer, at two replications.
After application, microtiter plates were incubated at about […] and about 80+5% relative humidity for 5 days. Egg and larval mortality was then visually assessed.

[4] = tested on: yellow fever mosquito (Aedes aegypti); test: whole plant or invertebrate; settings: 48 h, larval mortality visually assessed after 2 days, read-out: mortality in comparison with untreated controls
Protocol: Example B1: Action on Yellow Fever Mosquito (Aedes aegypti)
For evaluating control of yellow fever mosquito (Aedes aegypti) the test unit consisted of 96-well-microtiter plates containing 200 μl of tap water per well and 5-15 freshly hatched A. aegypti larvae.
The active compounds were formulated using a solution containing 75% (v/v) water and 25% (v/v) DMSO. Different concentrations of formulated compounds or mixtures were sprayed onto the insect diet at 2.5 μl, using a custom built micro atomizer, at two replications.
After application, microtiter plates were incubated at 28+1° C., 80+5% RH for 2 days. Larval mortality was then visually assessed.

[5] = tested on: Diamond Back Moth (Plutella xylostella); test: Action on diamond back moth, dipped cabbage leaves; settings: 3rd instar larvae, 72 hours after treatment, read-out: mortality in comparison with untreated controls
Protocol: Example B9: Action on Diamond Back Moth (Plutella xylostella)
The active compound is dissolved at the desired concentration in a mixture of 1:1 (vol:vol) distilled water:acetone. Surfactant (Kinetic® HV) is added at a rate of 0.01% (vol/vol). The test solution is prepared at the day of use.
Leaves of cabbage were dipped in test solution and air-dried. Treated leaves were placed in petri dishes lined with moist filter paper and inoculated with ten 3rd instar larvae. Mortality was recorded 72 hours after treatment. Feeding damages were also recorded using a scale of 0-100%.

[6] = tested on: Southern Armyworm (Spodoptera eridania), 2nd instar larvae; test: Action on southern armyworm 2nd instar larvae, sprayed lima bean plants; settings: 96 h, 4 days after treatment, read-out: mortality in comparison with untreated controls
Protocol: Example B10: Action on Southern Armyworm (Spodoptera eridania), 2nd Instar Larvae
The active compounds were formulated by a Tecan liquid handler in 100% cyclohexanone as a 10,000 ppm solution supplied in tubes. The 10,000 ppm solution was serially diluted in 100% cyclohexanone to make interim solutions. These served as stock solutions for which final dilutions were made by the Tecan in 50% acetone:50% water (v/v) into 10 or 20 ml glass vials. A nonionic surfactant (Kinetic®) was included in the solution at a volume of 0.01% (v/v). The vials were then inserted into an automated electrostatic sprayer equipped with an atomizing nozzle for application to plants/insects.
Lima bean plants (variety Sieva) were grown 2 plants to a pot and selected for treatment at the 1st true leaf stage. Test solutions were sprayed onto the foliage by an automated electrostatic plant sprayer equipped with an atomizing spray nozzle. The plants were dried in the sprayer fume hood and then removed from the sprayer. Each pot was placed into perforated plastic bags with a zip closure. About 10 to 11 armyworm larvae were placed into the bag and the bags zipped closed. Test plants were maintained in a growth room at about 25° C. and about 20-40% relative humidity for 4 days, avoiding direct exposure to fluorescent light (24 hour photoperiod) to prevent trapping of heat inside the bags. Mortality and reduced feeding were assessed 4 days after treatment, compared to untreated control plants.

[7] = tested on: boll weevil (Anthonomus grandis); test: Action on boll weevil, eggs on insect diet in 96-well microtiter plates; settings: 120 h, 800 ppm, egg and larval mortality visually assessed after 5 days, read-out: mortality in comparison with untreated controls
Protocol: Example B3: Action on Boll Weevil (Anthonomus grandis)
For evaluating control of boll weevil (Anthonomus grandis) the test unit consisted of 96-well-microtiter plates containing an insect diet and 5-10 A. grandis eggs.
as §1
After application, microtiter plates were incubated at about 25±1° C. and about 75±5% relative humidity for 5 days. Egg and larval mortality was then visually assessed.

[8] = tested on: Orchid Thrips (Dichromothrips corbetti); test: Action on orchid thrips, floral-immersion technique; settings: adult thrips, 72 hours after treatment, read-out: mortality in comparison with untreated controls
Protocol: Example B2: Action on Orchid Thrips (Dichromothrips Corbetti)
Dichromothrips corbettiadults used for bioassay were obtained from a colony maintained continuously under laboratory conditions. For testing purposes, the test compound is diluted in a 1:1 mixture of acetone:water (vol:vol), plus Kinetic® HV at a rate of 0.01% v/v.
Thrips potency of each compound was evaluated by using a floral-immersion technique. All petals of individual, intact orchid flowers were dipped into treatment solution and allowed to dry in Petri dishes. Treated petals were placed into individual re-sealable plastic along with about 20 adult thrips. All test arenas were held under continuous light and a temperature of about 28° C. for duration of the assay. After 3 days, the numbers of live thrips were counted on each petal. The percent mortality was recorded 72 hours after treatment.

Cc1cccc(C)c1/N=C1\SCC(=O)N1/N=C/c1cc2ccc3c(ncn3-c3ccc(OC(F)(F)F)cc3)c2cn1 [Compound C-29, (2Z)-2-(2,6-dimethylphenyl)imino-3-[(E)-[3-[4-(trifluoromethoxy)phenyl]imidazo[4,5-h]isoquinolin-7-yl]methyleneamino]thiazolidin-4-one]
≥ 75%: mortality at 800 ppm [1] | mortality at 500 ppm [2] | mortality at 800 ppm [3] | mortality at 800 ppm [4] | mortality at 500 ppm [5] | mortality at 500 ppm [6] | mortality at 800 ppm [7]

CC(C)c1ccccc1N1C(=O)CS/C1=N\N=C\c1cnc2c(ccc3c2ncn3-c2ccc(OC(F)(F)F)cc2)c1 [Compound C-17, (2Z)-3-(2-isopropylphenyl)-2-[(E)-[3-[4-(trifluoromethoxy)phenyl]imidazo[4,5-h]quinolin-7-yl]methylenehydrazono]thiazolidin-4-one]
≥ 75%: mortality at 800 ppm [1] | mortality at 500 ppm [2] | mortality at 800 ppm [3] | mortality at 500 ppm [8] | mortality at 800 ppm [4] | mortality at 500 ppm [5] | mortality at 800 ppm [7]

CC(C)c1ccccc1NC(=S)N/N=C/c1ccc2c(ccc3c(-c4ccc(OC(F)(F)F)cc4)n(C)nc32)n1 [Compound C-19, 1-(2-isopropylphenyl)-3-[(E)-[2-methyl-3-[4-(trifluoromethoxy)phenyl]pyrazolo[3,4-f]quinolin-7-yl]methyleneamino]thiourea]
≥ 75%: mortality at 800 ppm [1] | mortality at 500 ppm [2] | mortality at 800 ppm [3] | mortality at 800 ppm [4] | mortality at 500 ppm [6] | mortality at 800 ppm [7]

CC(C)c1ccccc1NC(=S)N/N=C/c1ccc2c(ccc3c2ncn3-c2ccc(OC(F)(F)F)cc2)n1 [Compound C-3, 1-(2-isopropylphenyl)-3-[(E)-[3-[4-(trifluoromethoxy)phenyl]imidazo[4,5-f]quinolin-7-yl]methyleneamino]thiourea]
≥ 75%: mortality at 800 ppm [1] | mortality at 500 ppm [2] | mortality at 500 ppm [5] | mortality at 500 ppm [6] | mortality at 800 ppm [7]

CC(C)c1ccccc1/N=C1\SCC(=O)N1/N=C/c1ccc2c(ccc3c2ncn3-c2ccc(OC(F)(F)F)cc2)n1 [Compound C-8, (2Z)-2-(2-isopropylphenyl)imino-3-[(E)-[3-[4-(trifluoromethoxy)phenyl]imidazo[4,5-f]quinolin-7-yl]methyleneamino]thiazolidin-4-one]
≥ 75%: mortality at 800 ppm [1] | mortality at 500 ppm [2] | mortality at 800 ppm [3] | mortality at 500 ppm [8] | mortality at 800 ppm [4] | mortality at 500 ppm [5] | mortality at 500 ppm [6] | mortality at 800 ppm [7]

CC(C)c1ccccc1N1C(=O)CS/C1=N\N=C\c1ccc2c(ccc3c(-c4ccc(OC(F)(F)F)cc4)n(C)nc32)n1 [Compound C-20, (2Z)-3-(2-isopropylphenyl)-2-[(E)-[2-methyl-3-[4-(trifluoromethoxy)phenyl]pyrazolo[3,4-f]quinolin-7-yl]methylenehydrazono]thiazolidin-4-one]
≥ 75%: mortality at 800 ppm [1] | mortality at 500 ppm [2] | mortality at 800 ppm [3] | mortality at 800 ppm [4] | mortality at 500 ppm [5] | mortality at 500 ppm [6] | mortality at 800 ppm [7]

Cc1cccc(C)c1N1C(=O)CS/C1=N\N=C\c1cnc2c(ccc3c2ncn3-c2ccc(OC(F)(F)F)cc2)c1 [Compound C-15, (2Z)-3-(2,6-dimethylphenyl)-2-[(E)-[3-[4-(trifluoromethoxy)phenyl]imidazo[4,5-h]quinolin-7-yl]methylenehydrazono]thiazolidin-4-one]
≥ 75%: mortality at 800 ppm [1] | mortality at 800 ppm [3] | mortality at 500 ppm [8] | mortality at 800 ppm [4] | mortality at 500 ppm [5] | mortality at 500 ppm [6] | mortality at 800 ppm [7]

Cc1cccc(C)c1/N=C1\SCC(=O)N1/N=C/c1ccc2c(ccc3c2ncn3-c2ccc(OC(F)(F)F)cc2)n1 [Compound C-7, (2Z)-2-(2,6-dimethylphenyl)imino-3-[(E)-[3-[4-(trifluoromethoxy)phenyl]imidazo[4,5-f]quinolin-7-yl]methyleneamino]thiazolidin-4-one]
≥ 75%: mortality at 800 ppm [1] | mortality at 800 ppm [3] | mortality at 500 ppm [8] | mortality at 800 ppm [4] | mortality at 500 ppm [5] | mortality at 500 ppm [6] | mortality at 800 ppm [7]
